Series [1] has as its system PAF-induced platelet aggregation (platelet-rich plasma). As to the kind of experiment: PAF antagonism, in vitro platelet aggregation assay. The class given is cell-based. The note with it: human PRP; for IC50: dose giving 50 % PAF antagonism, PAF 1-5×10^-8 M; for inhibition at 10 µM: dose 10 micromoles; for inhibition at 5 µM: dose 5 micromoles. The method, then: Blood was centrifuged at 110×g for 15 min. and the supernatant PRP carefully transferred into a polypropylene tube. Platelet-poor-plasma (PPP) was prepared by centrifuging PRP at 12,000×g for 2 min. in a Beckman Microfuge B. PRP was used within 3 hours of drawing the blood.
Platelet Aggregation Assay: When an aggregating agent such as PAF is added to PRP, platelets aggregate. An aggregometer quantifies this aggregation by measuring light (infra-red) transmission through PRP and comparing to PPP. The aggregation assays were performed using a dual-channel aggregometer (Model 440, Chrono-Log Corp., Hayertown, Pa.). PRP (0.45 ml) in aggregometer curettes was continually stirred (37° C.). Solutions of test compounds or vehicle were added to the PRP, and after incubation for 2 min., 10-15 μl aliquots of PAF solution were added so as to achieve a final concentration of 1-5×10^-8 M. Incubations were continued until the increase in light transmission reached a maximum (usually about 2 min). Values for inhibition were calculated by comparing maximal aggregation obtained in the absence and the presence of the compound. For each experiment, a standard PAF antagonist, such as alprazolam, was used as a positive internal control. […] The test results are shown below in Tables Ia, Ib and Ic.

Series [2] concerns histamine-induced lethality. As to the kind of experiment: Antihistamine activity: prevention of histamine-induced lethality in guinea pigs. The class given is in vivo. The note with it: Cavia porcellus, guinea pig; for responders at 1 mg/kg / responders at 5 mg/kg: 0.5 h, 1 hour before histamine 1.1 mg/kg i.v., read-out: Antihistaminic Activity, % Survival; for responders at 1 mg/kg: oral dose 1 mg/kg PO; for responders at 5 mg/kg: oral dose 5 mg/kg PO. As to the method:
C. ANTIHISTAMINE ACTIVITY ASSAY
Prevention of Histamine-Induced Lethality in Guinea Pigs. Some of compounds shown below in Table I also were evaluated for antihistamine activity by their ability to protect female albino guinea pigs (250-350 g) against death induced by the intravenous injection of histamine dihydrochloride at 1.1 mg/kg, which is approximately twice the LD99. Doses of the antagonists were administered orally to separate groups of fasted animals 1 hour prior to the challenge with histamine and protection from death recorded for 30 minutes after histamine. ED50 values were determined for each drug by probit analysis.

Series [3] in a line: CNS activity: antagonism of electro-convulsive shock (ECS). The note with it: mouse, in vivo; mice, oral, one hour before ECS; read-out: ECS test ED50. The method, then:
F. Antagonism of Electro-Convulsive Shock (ECS). The ECS test is a third test useful for determining CNS activity. […] One hour after oral administration of the test drug or vehicle, mice were administered a 13 mA, 60 cycle a.c. electroconvulsant shock (ECS) for 0.2 seconds via corneal electrodes.

A short description of series [4]: CNS activity: antagonism of acetic acid writhing. The note with it: mouse, in vivo; mice, oral, 15 minutes before acetic acid i.p. As to the method:
E. Antagonism of Acetic Acid Writhing. The acetic acid writhing test is a second test useful for determining CNS activity, and is essentially that described by HENDERSHOT and FORSAITH, J. Pharmac. […] Mice were injected with 0.6% aqueous acetic acid at 10 mg/kg i.p. 15 minutes after oral administration of the test drug. The number of writhes for each animal was counted during a 10 minute period starting 3 minutes after acetic acid treatment. A writhe was defined as a sequence of arching of the back, pelvic rotation and hind limb extension.

Each structure is given as a SMILES string.

`CC(=O)N1CCN(C2c3ccc(Cl)cc3CCc3cccnc32)CC1` (stereo not drawn) [R^3 = Cl, X = N, R = CH3, Z = O, R^4 = H, 8-chloro-11-(1-acetyl-4-piperazinyl)-6,11-dihydro-5H-benzo[5,6]cyclohepta[1,2-b]pyridine] showed an inhibition at 0.5 µM in series [1] (dose .5 micromoles) of 43%.
As for `CC(=O)N1CCC(=C2c3ccc(Cl)cc3C=Cc3cccnc32)CC1`, in series [1], the IC50 was 0.5 µM.
Same read-out and setting: the result for `CC(=O)N1CCC(C2c3ccccc3CCc3cccnc32)CC1` (stereo not drawn) [R^3 = H, R^4 = H, R = CH3, Z = O, X = CH, 11-(1-acetyl-4-piperidyl)-6,11-dihydro-5H-benzo[5,6]cyclohepta[1,2-b]pyridine] reads 5 µM.
For the molecule `CNC(=O)N1CCC(=C2c3ccc(Cl)cc3CCc3cccnc32)CC1` [R^3 = Cl, R^4 = H, R = NHCH3, Z = O, 8-chloro-11-(1-methylaminocarbonyl-4-piperidylidene)-6,11-dihydro-5H-benzo[5,6]cyclohepta[1,2-b]pyridine], in series [1] (dose 50 micromoles), the inhibition at 50 µM worked out at 29%.
Turning to `O=C(c1ccccc1)N1CCC(=C2c3ccc(Cl)cc3CCc3cccnc32)CC1` [Z = O, R = Ph, R^3 = Cl, R^4 = H, 8-chloro-11-(1-benzoyl-4-piperidylidene)-6,11-dihydro-5H-benzo[5,6]cyclohepta[1,2-b]pyridine], at 10 µM the inhibition in series [1] was 9%. Also, in series [2], the responders at 1 mg/kg came to 0% and the responders at 5 mg/kg amounted to 100%.
Turning to `O=CN1CCN(C2c3ccc(Cl)cc3CCc3cccnc32)CC1` (stereo not drawn) [R^3 = Cl, X = N, R = H, Z = O, R^4 = H, 8-chloro-11-(1-formyl-4-piperazinyl)-6,11-dihydro-5H-benzo[5,6]cyclohepta[1,2-b]pyridine], it took 5 µM to reach half-maximal inhibition in series [1] (IC50).
Consider `CC(=O)N1CCC(=C2c3ccccc3CCc3ccc[n+]([O-])c32)CC1`, for which the IC50 in series [1] stood at 1.5 µM.
Same read-out and setting: the result for `CC(=O)N1CCC(=C2c3ccc(Cl)cc3CC(=O)c3cccnc32)CC1` [8-chloro-11-[1-acetyl-4-piperidylidene]-6,11-dihydro-5H-benzo[5,6]cyclohepta[1,2-b]pyridin-5-one] reads 1.2 µM; that for `COCC(=O)N1CCN(C2c3ccc(Cl)cc3CCc3cccnc32)CC1` (stereo not drawn) [8-chloro-11-(1-methoxyacetyl-4-piperazinyl)-6,11-dihydro-5H-benzo[5,6]cyclohepta[1,2-b]pyridine], 5 µM.
As to `CCCC(=O)N1CCC(=C2c3ccc(Cl)cc3CCc3cccnc32)CC1` [8-chloro-11-(1-n-butyryl-4-piperidylidene)-6,11-dihydro-5H-benzo[5,6]cyclohepta[1,2-b]pyridine], the 50% effective dose (ED50) in series [3] was greater than 320 mg/kg. Further, the ED50 in series [4] is greater than 320 mg/kg. Further, in series [2], the responders at 1 mg/kg amounted to 40% and the responders at 5 mg/kg worked out at 100%.
Molecule `CC(=O)N1CCC(=C2c3cc4ccccc4cc3CCc3cccnc32)CC1` registered an inhibition at 5 µM in series [1] of 35%.
In turn, `CC(=O)N1CCC(=C2c3cc(F)c(F)cc3CCc3ccc[n+]([O-])c32)CC1` registered an inhibition at 2.5 µM in series [1] (dose 2.5 micromoles) of 53%.
In series [1], `CCSC(=O)N1CCC(=C2c3ccc(Cl)cc3CCc3cccnc32)CC1` [R = SCH2 CH3, R^3 = Cl, R^4 = H, Z = O, 8-chloro-11-[1-thioethoxycarbonyl-4-piperidylidene]-6,11-dihydro-5H-benzo[5,6]cyclohepta[1,2-b]pyridine] registered an inhibition at 10 µM of 0%. Besides, the ED50 in series [3] was greater than 320 mg/kg. In series [4], this molecule returned an ED50 greater than 320 mg/kg. Besides, in series [2], the responders at 1 mg/kg was determined as 100% and the responders at 5 mg/kg was determined as 80%.
Take `C=CC(=O)N1CCC(=C2c3ccc(Cl)cc3CCc3cccnc32)CC1` [R^3 = Cl, R^4 = H, R = CHCH2, Z = O, 8-chloro-11-[1-acryloyl-4-piperidylidene]-6,11-dihydro-5H-benzo[5,6]cyclohepta[1,2-b]pyridine]: the inhibition at 25 µM in series [1] (dose 25 micromoles) came out at 63%.
Consider `CC(=O)N1CCC(=C2c3ccc(Br)cc3CCc3cccnc32)CC1` [R^3 = Br, R^4 = H, R = CH3, Z = O, 8-bromo-11-[1-acetyl-4-piperidylidene]-6,11-dihydro-5H-benzo[5,6]cyclohepta[1,2-b]pyridine], for which, in series [1], 1.2 µM corresponded to half-maximal inhibition (IC50).
In the case of `CCOC(=O)N1CCC(=C2c3ccc(Cl)cc3CCc3cccnc32)CC1` [R = OC2 H5, R^3 = Cl, R4 = H, Z = O, 8-chloro-6,11-dihydro-11-(1-ethoxycarbonyl-4-piperidylidene)-5H-benzo[5,6]cyclohepta[1,2-b]pyridine, reference compound], the ED50 in series [2] (oral, probit analysis, read-out: Antihistaminic Activity, ED50) was found to be 0.19 mg/kg.
`CC(=O)N1CCC(=C2c3ccc(Cl)cc3CC(C)c3cccnc32)CC1` (stereo not drawn) [5-methyl-8-chloro-11-[1-acetyl-4-piperidylidene]-5H-benzo[5,6]cyclohepta[1,2-b]pyridine] had an IC50 in series [1] of 1 µM.
Molecule `COCC(=O)N1CCC(=C2c3ccc(Cl)cc3CCc3cccnc32)CC1` [R = CH2 OCH3, R^3 = Cl, R^4 = H, Z = O, 8-chloro-11-(1-methoxyacetyl-4-piperidylidene)-6,11-dihydro-5H-benzo[5,6]cyclohepta[1,2-b]pyridine] yielded an IC50 in series [1] of 6 µM. In addition, the ED50 in series [3] is greater than 320 mg/kg. For the same molecule, the ED50 in series [4] is greater than 320 mg/kg. Also, in series [2], the responders at 1 mg/kg worked out at 80% and the responders at 5 mg/kg was 80%.
On to `S=C(c1ccccc1)N1CCC(=C2c3ccc(Cl)cc3CCc3cccnc32)CC1` [Z = S, R = Ph, R^3 = Cl, R^4 = H, 8-chloro-11-(1-thiobenzoyl-4-piperidylidene)-6,11-dihydro-5H-benzo[5,6]cyclohepta[1,2-b]pyridine], for which, in series [3], the ED50 is greater than 320 mg/kg. This molecule showed an ED50 in series [4] greater than 320 mg/kg. Further, in series [2], the responders at 1 mg/kg turned out to be 0% and the responders at 5 mg/kg amounted to 60%.
As for `CC(=O)N1CCC(=C2c3ccc(Cl)cc3CC(O)c3cccnc32)CC1` (stereo not drawn) [5-hydroxy-8-chloro-11-(1-acetyl-4-piperidylidene)-6,11-dihydro-5H-benzo[5,6]cyclohepta[1,2-b]pyridine], it took 5 µM to reach half-maximal inhibition in series [1] (IC50).
Molecule `CC(=O)N1CCC(=C2c3ccc(Cl)cc3CCc3cc(C)cnc32)CC1` registered an inhibition at 0.12 µM in series [1] (dose .12 micromoles) of 44%.
For `CC(=O)N1CCC(=C2c3ccc(Cl)cc3CCc3ccc[n+](C)c32)CC1`, testing at 5 µM in series [1] gave an inhibition of 58%.
As for `CCC(=O)N1CCC(=C2c3ccc(Cl)cc3CCc3cccnc32)CC1` [R = CH2 CH2, R^3 = Cl, R^4 = H, Z = O, 8-chloro-11-(1-propionyl-4-piperidylidene)-6,11-dihydro-5H-benzo[5,6]cyclohepta[1,2-b]pyridine], in series [1] (dose 3 micromoles), the inhibition at 3 µM was determined as 60%. In addition, the ED50 in series [3] was greater than 320 mg/kg. Also, in series [4], the ED50 was greater than 320 mg/kg. Besides, in series [2], the responders at 1 mg/kg turned out to be 40% and the responders at 5 mg/kg is 80%.
`COCC(=O)N1CCC(=C2c3ccc(F)cc3CCc3cccnc32)CC1` [R = CH2 OCH3, R^3 = F, R^4 = H, Z = O, 8-fluoro-11-(1-methoxyacetyl-4-piperidylidene)-6,11-dihydro-5H-benzo[5,6]cyclohepta[1,2-b]pyridine] returned an inhibition at 10 µM in series [1] of 9%. Besides, the ED50 in series [3] and in series [4] was less than 320 mg/kg in each case. Besides, the responders at 1 mg/kg in series [2] worked out at 100%. Further, the responders at 5 mg/kg in series [2] was 100%.

(Values after US5438062A, “Benzo(5,6)cycloheptapyridines, compositions and methods of use” (Schering Corporation, priority 1987, dated 1995).)
